The target in the test is T1, LXRβ (Homo sapiens, UniProt P55055).
T1 construct: Co-transfection expression plasmids, comprising full-length LXRα (pCMX-h LXRα[…] or LXRβ (pCMX-hLXRβ)); expressed in transfected cells; host or cells: CV-1 African Green Monkey Kidney Cells
T1 sequence (P55055 1-460): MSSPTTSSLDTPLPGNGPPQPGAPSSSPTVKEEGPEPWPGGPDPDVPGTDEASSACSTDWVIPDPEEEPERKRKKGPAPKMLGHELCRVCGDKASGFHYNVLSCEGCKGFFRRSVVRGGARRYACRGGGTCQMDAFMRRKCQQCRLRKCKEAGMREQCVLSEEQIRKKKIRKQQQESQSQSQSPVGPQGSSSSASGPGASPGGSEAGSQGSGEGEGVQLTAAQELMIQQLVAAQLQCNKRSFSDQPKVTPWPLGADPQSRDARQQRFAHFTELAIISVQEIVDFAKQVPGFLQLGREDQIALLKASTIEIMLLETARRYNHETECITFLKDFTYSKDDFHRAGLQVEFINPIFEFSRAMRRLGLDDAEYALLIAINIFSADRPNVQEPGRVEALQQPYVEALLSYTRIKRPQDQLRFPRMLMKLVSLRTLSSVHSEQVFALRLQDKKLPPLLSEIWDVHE
T1 sequence (P19793 1-462 partner): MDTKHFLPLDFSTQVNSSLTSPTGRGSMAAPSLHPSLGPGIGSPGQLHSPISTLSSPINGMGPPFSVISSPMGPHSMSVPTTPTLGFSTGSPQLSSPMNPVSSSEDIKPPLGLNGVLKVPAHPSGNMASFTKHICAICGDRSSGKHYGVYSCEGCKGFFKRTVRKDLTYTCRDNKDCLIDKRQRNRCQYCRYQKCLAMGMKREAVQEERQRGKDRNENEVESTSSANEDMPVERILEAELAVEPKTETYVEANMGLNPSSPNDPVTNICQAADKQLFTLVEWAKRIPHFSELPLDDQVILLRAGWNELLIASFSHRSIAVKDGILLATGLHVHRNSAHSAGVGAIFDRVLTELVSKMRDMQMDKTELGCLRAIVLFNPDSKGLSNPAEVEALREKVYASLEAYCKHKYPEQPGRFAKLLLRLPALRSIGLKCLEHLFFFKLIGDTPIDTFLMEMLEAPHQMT
The experiment in a line: Co-transfection assay (LXRE luciferase reporter), LXRβ. In kind it is cell-based. The conditions noted are these: for EC50: CV-1 cells transfected with pCMX-hLXRβ and LXREx1-Tk-Luciferase, 20 hours incubation; for Emax: LXRβ co-transfection, relative to high control 1-(2,4-difluorobenzyl)-2-oxo-6-(4-phenoxyphenyl)-4-(trifluoromethyl)-1,2-dihydropyridine-3-carbonitrile, read-out: % Efficacy. The method in brief: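 Luciferase signal from an LXREx1-Tk reporter was measured after transfected CV-1 cells (full-length hLXRβ, endogenous RXR) were treated with compounds for 20 h at 37 °C, ≤0.5% DMSO. EC50 came from four-parameter fits of 11-point ½-log curves; % efficacy versus a reference agonist maximum.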
In general terms: A reporter such as luciferase makes a cellular process visible.

The term EC50 denotes the concentration giving half of the maximal effect. Read a high EC50 as weaker potency. With `Cc1cc(-c2cc(-c3ccc(CO)c(S(C)(=O)=O)c3)ccc2-n2cc(C(F)(F)F)nc2C)n(-c2ccc3c(c2)OC(F)(F)O3)n1` [Example 300, (3′-(1-(2,2-difluorobenzo[d][1,3]dioxol-5-yl)-3-methyl-1H-pyrazol-5-yl)-4′-(2-methyl-4-(trifluoromethyl)-1H-imidazol-1-yl)-3-(methylsulfonyl)biphenyl-4-yl)methanol], the response was half-maximal at 12 nM (EC50) and the Emax was found to be 61%.

For `Cc1cc(-c2cc(-c3cccc(S(C)(=O)=O)c3)ccc2-n2cc(C(F)(F)F)nc2C)n(-c2ccc(OC(F)F)cc2)n1` [Example 301, 1-(4-(difluoromethoxy)phenyl)-3-methyl-5-(4-(2-methyl-4-(trifluoromethyl)-1H-imidazol-1-yl)-3′-(methylsulfonyl)biphenyl-3-yl)-1H-pyrazole], the EC50 was 49 nM and the Emax amounted to 91%.

With `Cc1cc(-c2cc(-c3ccc(CO)c(S(C)(=O)=O)c3)ccc2-n2cc(C(F)(F)F)nc2C)n(-c2ccc(OC(F)F)cc2)n1` [Example 302, (3′-(1-(4-(difluoromethoxy)phenyl)-3-methyl-1H-pyrazol-5-yl)-4′-(2-methyl-4-(trifluoromethyl)-1H-imidazol-1-yl)-3-(methylsulfonyl)-[1,1′-biphenyl]-4-yl)methanol], a half-maximal response (EC50) required 25 nM and the Emax is 81%.

Consider `Cc1cc(-c2cc(-c3cc(O)c(CF)c(S(C)(=O)=O)c3)ccc2-n2cc(C(F)(F)F)nc2C)n(-c2ccc(OC(F)(F)F)cc2)n1` [Example 303, 4-(fluoromethyl)-3′-(3-methyl-1-(4-(trifluoromethoxy)phenyl)-1H-pyrazol-5-yl)-4′-(2-methyl-4-(trifluoromethyl)-1H-imidazol-1-yl)-5-(methylsulfonyl)-[1,1′-biphenyl]-3-ol], for which the midpoint of the response, the EC50, lay at 21 nM and the Emax was found to be 68%.

Regarding `Cc1cc(-c2cc(-c3cccc(S(C)(=O)=O)c3)ccc2-n2cc(C(F)(F)F)nc2C)n(-c2ccc3c(c2)OC(F)(F)O3)n1` [Example 304, 1-(2,2-difluorobenzo[d][1,3]dioxol-5-yl)-3-methyl-5-(4-(2-methyl-4-(trifluoromethyl)-1H-imidazol-1-yl)-3′-(methylsulfonyl)-[1,1′-biphenyl]-3-yl)-1H-pyrazole], the EC50 was 28 nM and the Emax worked out at 100%.

Turning to `Cc1nc(C(F)(F)F)cn1-c1ccc(-c2cccc(S(C)(=O)=O)c2)cc1-c1ncoc1-c1ccc(Cl)cc1` [Example 354, 5-(4-chlorophenyl)-4-{3′-(methylsulfonyl)-4-[2-methyl-4-(trifluoromethyl)-1H-imidazol-1-yl]biphenyl-3-yl}-1,3-oxazole], a half-maximal response (EC50) required 425 nM and the Emax amounted to 77%.

Turning to `Cc1nc(C(F)(F)F)cn1-c1ccc(-c2cc(F)c(CO)c(S(C)(=O)=O)c2)cc1-c1ocnc1-c1ccc(Cl)cc1` [Example 355, {3′-[4-(4-chlorophenyl)-1,3-oxazol-5-yl]-3-fluoro-5-(methylsulfonyl)-4′-[2-methyl-4-(trifluoromethyl)-1H-imidazol-1-yl]biphenyl-4-yl}methanol], the EC50 came out at 105 nM and the Emax came out at 98%.

Regarding `Cc1nc(C(C)(F)F)cn1-c1ccc(-c2cc(F)c(CO)c(S(C)(=O)=O)c2)cc1-c1ocnc1-c1ccc(OC(F)(F)F)cc1` [Example 356, (4′-(4-(1,1-difluoroethyl)-2-methyl-1H-imidazol-1-yl)-3-fluoro-5-(methylsulfonyl)-3′-(4-(4-(trifluoromethoxy)phenyl)oxazol-5-yl)biphenyl-4-yl)methanol], the EC50 turned out to be 599 nM and the Emax is 79%.

`CNS(=O)(=O)c1cccc(-c2ccc(-n3cc(C(F)(F)F)nc3C)c(-c3ocnc3-c3ccc(OC(F)(F)F)cc3)c2)c1` [Example 357, N-methyl-4′-[2-methyl-4-(trifluoromethyl)-1H-imidazol-1-yl]-3′-(4-{4-[(trifluoromethyl)oxy]phenyl}-1,3-oxazol-5-yl)biphenyl-3-sulfonamide]: a half-maximal effect (EC50) was put at 106 nM and the Emax is 98%.

As to `Cc1nc(C(F)(F)F)cn1-c1ccc(-c2cccc(S(=O)(=O)N(C)C)c2)cc1-c1ocnc1-c1ccc(OC(F)(F)F)cc1` [Example 358, N,N-dimethyl-4′-[2-methyl-4-(trifluoromethyl)-1H-imidazol-1-yl]-3′-(4-{4-[(trifluoromethyl)oxy]phenyl}-1,3-oxazol-5-yl)biphenyl-3-sulfonamide], the EC50 came out at 116 nM and the Emax came to 87%.

As for `Cc1nc(C(F)(F)F)cn1-c1ccc(-c2cc(F)c(CO)c(S(C)(=O)=O)c2)cc1-c1ocnc1-c1ccc(OC(F)(F)F)cc1` [Example 359, [3-fluoro-5-(methylsulfonyl)-4′-[2-methyl-4-(trifluoromethyl)-1H-imidazol-1-yl]-3′-(4-{4-[(trifluoromethyl)oxy]phenyl}-1,3-oxazol-5-yl)biphenyl-4-yl]methanol], the response was half-maximal at 138 nM (EC50) and the Emax amounted to 91%.

In the case of `Cc1nc(C(F)(F)F)cn1-c1ccc(-c2cccc(S(C)(=O)=O)c2)cc1-c1ocnc1-c1ccc(Cl)cc1` [Example 360, 4-(4-chlorophenyl)-5-{3′-(methylsulfonyl)-4-[2-methyl-4-(trifluoromethyl)-1H-imidazol-1-yl]biphenyl-3-yl}-1,3-oxazole], it took 170 nM to reach a half-maximal effect (EC50) and the Emax came out at 93%.

As to `Cc1nc(C(F)(F)F)cn1-c1ccc(-c2cccc(S(C)(=O)=O)c2)cc1-c1ocnc1-c1ccc(OC(F)(F)F)cc1` [Example 361, 5-{3′-(methylsulfonyl)-4-[2-methyl-4-(trifluoromethyl)-1H-imidazol-1-yl]biphenyl-3-yl}-4-{4-[(trifluoromethyl)oxy]phenyl}-1,3-oxazole], the EC50 is 183 nM and the Emax stood at 89%.

`Cc1nc(C(C)(F)F)cn1-c1ccc(-c2cccc(S(C)(=O)=O)c2)cc1-c1ocnc1-c1ccc(OC(F)(F)F)cc1` [Example 362, 5-{4-[4-(1,1-difluoroethyl)-2-methyl-1H-imidazol-1-yl]-3′-(methylsulfonyl)biphenyl-3-yl}-4-{4-[(trifluoromethyl)oxy]phenyl}-1,3-oxazole]: the concentration giving a half-maximal response (EC50) is 691 nM and the Emax amounted to 75%.

On to `CCC(F)(F)c1cn(-c2ccc(-c3cc(F)c(CO)c(S(C)(=O)=O)c3)cc2-c2ocnc2-c2ccc(OC(F)(F)F)cc2)c(C)n1` [Example 363, {4′-[4-(1,1-difluoropropyl)-2-methyl-1H-imidazol-1-yl]-3-fluoro-5-(methylsulfonyl)-3′-(4-{4-[(trifluoromethyl)oxy]phenyl}-1,3-oxazol-5-yl)biphenyl-4-yl}methanol], for which the EC50 was 288 nM and the Emax amounted to 58%.

As for `CCC(F)(F)c1cn(-c2ccc(-c3cccc(S(C)(=O)=O)c3)cc2-c2ocnc2-c2ccc(OC(F)(F)F)cc2)c(C)n1` [Example 364, 5-{4-[4-(1,1-difluoropropyl)-2-methyl-1H-imidazol-1-yl]-3′-(methylsulfonyl)biphenyl-3-yl}-4-{4-[(trifluoromethyl)oxy]phenyl}-1,3-oxazole], a half-maximal response (EC50) required 410 nM and the Emax is 55%.

For `Cc1nc(C(F)(F)F)cn1-c1ccc(-c2cc(F)c(CO)c(S(C)(=O)=O)c2)cc1-c1ncoc1-c1ccc(Cl)cc1` [Example 365, {3′-[5-(4-chlorophenyl)-1,3-oxazol-4-yl]-3-fluoro-5-(methylsulfonyl)-4′-[2-methyl-4-(trifluoromethyl)-1H-imidazol-1-yl]biphenyl-4-yl}methanol], a half-maximal response (EC50) required 307 nM and the Emax was determined as 81%.

Regarding `Cc1nc(-c2cc(-c3cccc(S(C)(=O)=O)c3)ccc2-n2cc(C(F)(F)F)nc2C)c(-c2ccc(OC(F)(F)F)cc2)o1` [Example 366, 2-methyl-4-{3′-(methylsulfonyl)-4-[2-methyl-4-(trifluoromethyl)-1H-imidazol-1-yl]biphenyl-3-yl}-5-{4-[(trifluoromethyl)oxy]phenyl}-1,3-oxazole], a half-maximal response (EC50) required 77 nM and the Emax was found to be 89%.

Source of the values: US9834542B2, “LXR modulators” (BRISTOL-MYERS SQUIBB COMPANY, priority 2013, dated 2017).
